In the NIST ThermoML archive (doi:10.1016/j.jct.2018.11.014):

Test: molar heat capacity at constant pressure
Conditions: 101.33 kPa, Crystal, Vacuum adiabatic calorimetry

O=C(CO)[C@@H](O)[C@@H](O)[C@H](O)CO [D-(-)-tagatose]
Conditions	molar heat capacity at constant pressure [J/K/mol]
10 K	0.94
14.02 K	2.674
14.41 K	2.87
14.81 K	3.123
15.25 K	3.307
15.73 K	3.601
16.23 K	3.917
16.72 K	4.241
17.21 K	4.591
17.74 K	4.922
18.26 K	5.33
18.79 K	5.733
19.32 K	6.103
19.88 K	6.523
20 K	6.61
20.46 K	6.946
21.02 K	7.413
21.59 K	7.933
22.17 K	8.327
22.74 K	8.872
23.29 K	9.326
23.86 K	9.837
24.43 K	10.34
24.96 K	10.79
25.5 K	11.35
26.05 K	11.75
26.63 K	12.36
27.21 K	12.84
27.8 K	13.39
28.43 K	14.04
29.08 K	14.61
29.7 K	15.2
30 K	15.48
30.32 K	15.75
30.93 K	16.36
31.54 K	16.95
32.18 K	17.49
32.85 K	18.2
33.51 K	18.79
34.17 K	19.45
34.85 K	20.14
35.56 K	20.8
36.25 K	21.42
36.92 K	22.12
37.6 K	22.72
38.32 K	23.45
39.06 K	24.19
39.8 K	24.86
40 K	25.07
40.56 K	25.59
41.34 K	26.39
42.12 K	27.17
42.9 K	27.84
43.73 K	28.66
44.59 K	29.45
45.47 K	30.31
46.33 K	31.15
47.17 K	31.93
48.01 K	32.72
48.86 K	33.49
49.73 K	34.49
50 K	34.58
50.59 K	35.1
51.44 K	35.9
52.28 K	36.7
53.12 K	37.43
53.94 K	38.19
54.73 K	38.96
55.51 K	39.6
56.29 K	40.34
57.09 K	41.06
57.89 K	41.8
58.7 K	42.51
59.51 K	43.28
60 K	43.72
60.35 K	44.06
61.19 K	44.77
62.02 K	45.55
62.84 K	46.28
63.66 K	46.99
64.47 K	47.71
65.28 K	48.44
66.09 K	49.12
66.9 K	49.84
67.72 K	50.53
68.52 K	51.3
69.3 K	51.99
70 K	52.55
70.08 K	52.63
70.85 K	53.29
71.66 K	54
72.51 K	54.75
73.34 K	55.43
74.17 K	56.15
74.99 K	56.78
75.84 K	57.55
76.73 K	58.37
77.61 K	59.05
78.48 K	59.83
79.34 K	60.58
80 K	61.11
80.24 K	61.32
81.18 K	62.13
82.13 K	62.93
83.07 K	63.68
84.01 K	64.47
85 K	65.34
86.03 K	66.11
87.06 K	66.91
88.1 K	67.79
89.12 K	68.69
90 K	69.42
90.18 K	69.57
91.27 K	70.49
92.35 K	71.33
93.42 K	72.22
94.47 K	73.05
95.56 K	73.96
96.68 K	74.84
97.79 K	75.75
98.88 K	76.69
99.96 K	77.46
100 K	77.52
101.1 K	78.37
102.28 K	79.32
103.46 K	80.27
104.64 K	81.16
105.83 K	82.14
107.05 K	83.09
108.3 K	84.09
109.54 K	85.07
110 K	85.43
110.79 K	86.05
112.05 K	87.01
113.37 K	88.06
114.74 K	89.11
116.09 K	90.16
117.44 K	91.23
118.77 K	92.2
120 K	93.18
120.13 K	93.3
121.52 K	94.39
122.9 K	95.4
124.27 K	96.48
125.63 K	97.47
127.06 K	98.59
128.55 K	99.75
130 K	100.79
130.03 K	100.83
131.5 K	101.97
132.96 K	103.07
134.45 K	104.19
135.97 K	105.29
137.47 K	106.45
138.97 K	107.56
140 K	108.3
140.45 K	108.68
141.96 K	109.8
143.5 K	110.93
145.03 K	112.09
146.55 K	113.1
148.1 K	114.27
149.72 K	115.49
150 K	115.72
151.43 K	116.75
153.17 K	118.02
154.9 K	119.31
156.62 K	120.56
158.37 K	121.84
160 K	123.1
160.14 K	123.23
161.94 K	124.54
163.76 K	125.92
165.57 K	127.19
167.41 K	128.53
169.28 K	129.9
170 K	130.45
171.14 K	131.27
172.99 K	132.6
174.82 K	134.01
176.68 K	135.37
178.57 K	136.72
180 K	137.8
180.49 K	138.21
182.43 K	139.62
184.37 K	141.02
186.33 K	142.53
188.32 K	143.96
190 K	145.19
190.29 K	145.43
192.26 K	146.89
194.22 K	148.2
196.2 K	149.78
198.21 K	151.32
200 K	152.62
200.21 K	152.77
202.19 K	154.24
204.24 K	155.8
206.37 K	157.27
208.53 K	159.03
210 K	160.09
210.68 K	160.61
212.82 K	162.18
214.94 K	163.84
217.1 K	165.39
219.28 K	167.07
220 K	167.61
221.45 K	168.71
223.6 K	170.37
225.82 K	171.99
228.13 K	173.74
230 K	175.16
230.48 K	175.53
232.81 K	177.33
235.13 K	179.15
237.48 K	180.87
239.92 K	182.64
240 K	182.74
242.39 K	184.45
244.84 K	186.37
247.28 K	188.22
249.7 K	190.03
250 K	190.36
252.15 K	192.06
254.63 K	194.03
257.1 K	195.94
259.55 K	197.81
260 K	198.11
261.98 K	199.73
264.45 K	201.55
266.94 K	203.51
269.42 K	205.41
270 K	206.1
271.88 K	207.63
274.33 K	209.55
276.81 K	211.93
279.31 K	213.91
280 K	214.24
281.79 K	215.77
284.26 K	217.69
286.73 K	219.65
289.21 K	221.51
290 K	222.17
291.73 K	223.31
294.22 K	225.32
296.71 K	227.47
298.15 K	228.55
299.18 K	229.22
300 K	229.99
301.76 K	231.28
304.46 K	233.53
307.14 K	235.53
309.81 K	237.67
310 K	237.81
312.46 K	239.92
315.14 K	241.99
317.84 K	244.2
320 K	245.73
320.53 K	246.19
323.2 K	248.11
325.86 K	250.28
328.54 K	252.68
330 K	253.86
331.25 K	254.96
